Reference: publication PMC2248166, “Quantitative peptide binding motifs for 19 human and mouse MHC class I molecules derived using positional scanning combinatorial peptide libraries” (Immunome Research, 2008)

What follows are sequences tested against HLA B*3501 (Homo sapiens, UniProt P01889, A329T/A93T/A95T/C349S/D201E/D98Y/E176V/E187L/E204Q/E69T/I218V/K202T/L119I/Q94N/R155S/R180L/S121R/S35A/S48A/T118I/V127L/V306I/V36M/Y140S/Y91F) (assay: not given).
Type: binding

Row | Sequence | Normalized average relative binding affinity(ARB)
1 | XXXXVXXXX [3064.0098] | 0.22
2 | XXXXWXXXX [3064.0099] | 0.29
3 | XXXXXAXXX [3064.0101] | 0.21
4 | XXXXXCXXX [3064.0102] | 0.15
5 | XXXXXDXXX [3064.0103] | 0.13
6 | XXXXXEXXX [3064.0104] | 0.21

Each sequence was assayed against HLA B*5401 (Homo sapiens, UniProt P01889, A329T/C349S/D138N/D201E/E176V/E187T/E204Q/E69G/I76V/K202T/L119W/R155S/R180L/S121T/S35A/S48A/V127L/V306I/V36M/Y140L) (assay: not given).
Type: binding

Row | Sequence | Normalized average relative binding affinity(ARB)
7 | XXXXVXXXX [3064.0098] | 0.042
8 | XXXXWXXXX [3064.0099] | 0.14
9 | XXXXXAXXX [3064.0101] | 0.20
10 | XXXXXCXXX [3064.0102] | 0.10
11 | XXXXXDXXX [3064.0103] | 0.045
12 | XXXXXEXXX [3064.0104] | 0.065

These sequences were tested against HLA A*3001 (Homo sapiens, UniProt P04439, D140H/D185E/E176W/F33S/G80R/H175R/K168Q/R138E/R41S) (assay: biochemical).
Type: binding

Row | Sequence | Normalized average relative binding affinity(ARB)
13 | XXXXVXXXX [3064.0098] | 0.35
14 | XXXXWXXXX [3064.0099] | 0.16
15 | XXXXXAXXX [3064.0101] | 0.34
16 | XXXXXCXXX [3064.0102] | 0.13
17 | XXXXXDXXX [3064.0103] | 0.016
18 | XXXXXEXXX [3064.0104] | 0.059

What follows are sequences tested against H-2 K^d (Mus musculus, UniProt P01902) (assay: not given).
Type: binding

Chain of H-2 K^d (P01887 21-119): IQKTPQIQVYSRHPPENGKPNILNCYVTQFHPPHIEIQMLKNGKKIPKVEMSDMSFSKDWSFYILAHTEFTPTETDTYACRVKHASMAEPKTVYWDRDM
Chain of H-2 K^d (P01902 22-368): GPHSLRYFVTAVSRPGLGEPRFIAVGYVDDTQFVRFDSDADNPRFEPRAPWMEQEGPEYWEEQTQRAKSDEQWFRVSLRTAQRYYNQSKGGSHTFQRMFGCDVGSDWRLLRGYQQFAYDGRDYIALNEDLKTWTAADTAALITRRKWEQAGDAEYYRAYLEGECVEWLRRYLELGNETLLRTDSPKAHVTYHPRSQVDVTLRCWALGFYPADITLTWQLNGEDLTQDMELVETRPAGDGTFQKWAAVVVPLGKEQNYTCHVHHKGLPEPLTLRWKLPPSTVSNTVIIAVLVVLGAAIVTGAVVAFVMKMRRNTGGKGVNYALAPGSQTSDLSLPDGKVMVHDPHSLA

Row | Sequence | Normalized average relative binding affinity(ARB)
19 | XXXXVXXXX [3064.0098] | 0.24
20 | XXXXWXXXX [3064.0099] | 0.21
21 | XXXXXAXXX [3064.0101] | 0.26
22 | XXXXXCXXX [3064.0102] | 0.26
23 | XXXXXDXXX [3064.0103] | 0.066
24 | XXXXXEXXX [3064.0104] | 0.083

What follows are sequences tested against H-2 D^b (Mus musculus, UniProt P01899) (assay: not given).
Type: binding

Chain of H-2 D^b (P01887 21-119): as the sequence (P01887 21-119) above
Chain of H-2 D^b (P01899 25-362): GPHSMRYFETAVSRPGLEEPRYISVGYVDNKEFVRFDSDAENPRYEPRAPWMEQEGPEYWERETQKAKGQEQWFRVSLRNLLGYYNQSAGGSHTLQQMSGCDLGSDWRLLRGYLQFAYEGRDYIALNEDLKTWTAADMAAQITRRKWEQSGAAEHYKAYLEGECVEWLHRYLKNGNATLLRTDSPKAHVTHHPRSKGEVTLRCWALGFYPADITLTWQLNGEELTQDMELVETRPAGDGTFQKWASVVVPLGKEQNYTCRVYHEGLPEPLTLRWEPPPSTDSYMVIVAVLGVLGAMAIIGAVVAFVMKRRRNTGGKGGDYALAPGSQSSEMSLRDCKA

Row | Sequence | Normalized average relative binding affinity(ARB)
25 | XXXXVXXXX [3064.0098] | 0.021
26 | XXXXWXXXX [3064.0099] | 0.013
27 | XXXXXAXXX [3064.0101] | 0.62
28 | XXXXXCXXX [3064.0102] | 0.66
29 | XXXXXDXXX [3064.0103] | 0.29
30 | XXXXXEXXX [3064.0104] | 0.43

These sequences were tested against HLA B*1501 (Homo sapiens, UniProt P01889, A329T/A93T/A95T/C349S/D201E/D98Y/E187L/E204Q/E69M/E70A/K202T/N87E/Q94N/R155S/R180W/S121R/S35A/S48A/V306I/V36M/Y140S/Y91S) (assay: biochemical).
Type: binding

Row | Sequence | Normalized average relative binding affinity(ARB)
31 | XXXXVXXXX [3064.0098] | 0.56
32 | XXXXWXXXX [3064.0099] | 0.49
33 | XXXXXAXXX [3064.0101] | 0.30
34 | XXXXXCXXX [3064.0102] | 0.40
35 | XXXXXDXXX [3064.0103] | 0.18
36 | XXXXXEXXX [3064.0104] | 0.30

Each sequence was assayed against HLA B*0801 (Homo sapiens, UniProt P01889, A93T/A95T/D138N/E176V/E187T/K202T/Q94N/R180D/S35A/V36M/Y33D/Y91F) (assay: biochemical).
Type: binding

Row | Sequence | Normalized average relative binding affinity(ARB)
37 | XXXXVXXXX [3064.0098] | 0.019
38 | XXXXWXXXX [3064.0099] | 0.023
39 | XXXXXAXXX [3064.0101] | 0.011
40 | XXXXXCXXX [3064.0102] | 0.039
41 | XXXXXDXXX [3064.0103] | 0.0089
42 | XXXXXEXXX [3064.0104] | 0.023

These sequences were tested against HLA B*5101 (Homo sapiens, UniProt P01889, A329T/A93T/A95T/C349S/D138N/D201E/D98Y/E187L/E204Q/E69T/G107R/I218V/K202T/L105A/L119W/N104I/Q94N/R106L/R155S/R180L/S101N/S121T/S35A/S48A/V306I/V36M/Y195H/Y91F) (assay: not given).
Type: binding

Row | Sequence | Normalized average relative binding affinity(ARB)
43 | XXXXVXXXX [3064.0098] | 0.36
44 | XXXXWXXXX [3064.0099] | 0.19
45 | XXXXXAXXX [3064.0101] | 0.43
46 | XXXXXCXXX [3064.0102] | 0.26
47 | XXXXXDXXX [3064.0103] | 0.064
48 | XXXXXEXXX [3064.0104] | 0.12

These sequences were tested against HLA B*5801 (Homo sapiens, UniProt P01889, A329T/C349S/D201E/D98Y/E176V/E187L/E204Q/E69T/G107R/I218V/I90N/K202T/L105A/L119I/N104I/N87E/Q89R/Q94S/R106L/R155S/R180L/R86G/S101N/S121R/S35A/S48A/T118I/V127L/V306I/V36M/Y140S/Y91M) (assay: not given).
Type: binding

Row | Sequence | Normalized average relative binding affinity(ARB)
49 | XXXXVXXXX [3064.0098] | 1.0
50 | XXXXWXXXX [3064.0099] | 0.30
51 | XXXXXAXXX [3064.0101] | 0.28
52 | XXXXXCXXX [3064.0102] | 0.17
53 | XXXXXDXXX [3064.0103] | 0.36
54 | XXXXXEXXX [3064.0104] | 0.80

Each sequence was assayed against H-2 K^k (Mus musculus, UniProt P04223) (assay: not given).
Type: binding

Chain of H-2 K^k (P01887 21-119): as the sequence (P01887 21-119) above
Chain of H-2 K^k (P04223 22-369): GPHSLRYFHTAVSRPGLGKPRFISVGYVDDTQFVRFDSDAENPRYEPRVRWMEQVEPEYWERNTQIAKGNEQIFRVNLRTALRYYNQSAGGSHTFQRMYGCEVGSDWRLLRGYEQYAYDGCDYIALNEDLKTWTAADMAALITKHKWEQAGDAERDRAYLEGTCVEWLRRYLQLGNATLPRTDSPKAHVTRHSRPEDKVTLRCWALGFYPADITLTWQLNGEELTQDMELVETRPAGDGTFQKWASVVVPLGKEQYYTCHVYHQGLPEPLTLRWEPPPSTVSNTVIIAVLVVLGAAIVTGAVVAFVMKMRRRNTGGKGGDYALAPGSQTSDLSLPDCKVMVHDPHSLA

Row | Sequence | Normalized average relative binding affinity(ARB)
55 | XXXXVXXXX [3064.0098] | 0.18
56 | XXXXWXXXX [3064.0099] | 1.0
57 | XXXXXAXXX [3064.0101] | 0.83
58 | XXXXXCXXX [3064.0102] | 0.40
59 | XXXXXDXXX [3064.0103] | 0.37
60 | XXXXXEXXX [3064.0104] | 0.18

The sequences below were run against H-2 D^d (Mus musculus, UniProt P01900) (assay: not given).
Type: binding

Chain of H-2 D^d (P01900 whole entry, looked up): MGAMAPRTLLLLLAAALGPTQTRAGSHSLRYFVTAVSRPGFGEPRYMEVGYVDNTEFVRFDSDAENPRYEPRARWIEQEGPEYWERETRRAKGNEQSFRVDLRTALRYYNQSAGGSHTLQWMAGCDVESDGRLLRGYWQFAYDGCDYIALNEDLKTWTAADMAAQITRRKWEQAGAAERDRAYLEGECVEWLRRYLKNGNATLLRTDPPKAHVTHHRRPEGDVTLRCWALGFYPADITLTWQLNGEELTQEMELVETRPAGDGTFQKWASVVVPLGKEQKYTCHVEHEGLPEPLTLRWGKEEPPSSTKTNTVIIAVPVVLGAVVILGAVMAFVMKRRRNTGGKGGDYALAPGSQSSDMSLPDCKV

Row | Sequence | Normalized average relative binding affinity(ARB)
61 | XXXXVXXXX [3064.0098] | 0.25
62 | XXXXWXXXX [3064.0099] | 0.098
63 | XXXXXAXXX [3064.0101] | 0.51
64 | XXXXXCXXX [3064.0102] | 0.43
65 | XXXXXDXXX [3064.0103] | 0.29
66 | XXXXXEXXX [3064.0104] | 0.31

Each sequence was assayed against HLA B*1503 (Homo sapiens, UniProt P01889, A329T/A93T/A95T/C349S/D201E/D98Y/E187L/E204Q/K202T/N87E/Q94N/R155S/R180L/S121R/S35A/V306I/V36M/Y140S/Y91S) (assay: biochemical).
Type: binding

Row | Sequence | Normalized average relative binding affinity(ARB)
67 | XXXXVXXXX [3064.0098] | 0.24
68 | XXXXWXXXX [3064.0099] | 0.44
69 | XXXXXAXXX [3064.0101] | 0.45
70 | XXXXXCXXX [3064.0102] | 0.096
71 | XXXXXDXXX [3064.0103] | 0.19
72 | XXXXXEXXX [3064.0104] | 0.40

What follows are sequences tested against HLA B*5301 (Homo sapiens, UniProt P01889, A329T/A93T/A95T/C349S/D201E/D98Y/E176V/E187L/E204Q/E69T/G107R/I218V/K202T/L105A/L119I/N104I/Q94N/R106L/R155S/R180L/S101N/S121R/S35A/S48A/T118I/V127L/V306I/V36M/Y140S/Y91F) (assay: not given).
Type: binding

Row | Sequence | Normalized average relative binding affinity(ARB)
73 | XXXXVXXXX [3064.0098] | 0.18
74 | XXXXWXXXX [3064.0099] | 0.074
75 | XXXXXAXXX [3064.0101] | 0.65
76 | XXXXXCXXX [3064.0102] | 0.13
77 | XXXXXDXXX [3064.0103] | 0.15
78 | XXXXXEXXX [3064.0104] | 0.21

The sequences below were run against HLA B*5802 (Homo sapiens, UniProt P01889, A329T/C349S/D201E/D98Y/E176V/E187L/E204Q/E69T/G107R/I218V/I90N/K202T/L105A/N104I/N87E/Q89R/Q94S/R106L/R155S/R180L/R86G/S101N/S121W/S35A/S48A/V127L/V306I/V36M/Y140S/Y91M) (assay: not given).
Type: binding

Row | Sequence | Normalized average relative binding affinity(ARB)
79 | XXXXVXXXX [3064.0098] | 0.87
80 | XXXXWXXXX [3064.0099] | 1.0
81 | XXXXXAXXX [3064.0101] | 0.91
82 | XXXXXCXXX [3064.0102] | 0.38
83 | XXXXXDXXX [3064.0103] | 0.15
84 | XXXXXEXXX [3064.0104] | 0.14

These sequences were tested against HLA A*3201 (Homo sapiens, UniProt P04439, A270S/D101S/D185E/E176V/E277Q/F133L/G103R/G107R/G231S/H175R/I121M/I218V/I322F/K168Q/L105A/L300P/L318F/M331R/P208A/P217A/Q94H/R106L/R138Q/S129P/T104I/T323A/T345S/V100E/V321M/V358M) (assay: biochemical).
Type: binding

Row | Sequence | Normalized average relative binding affinity(ARB)
85 | XXXXVXXXX [3064.0098] | 0.47
86 | XXXXWXXXX [3064.0099] | 0.65
87 | XXXXXAXXX [3064.0101] | 0.83
88 | XXXXXCXXX [3064.0102] | 0.19
89 | XXXXXDXXX [3064.0103] | 0.16
90 | XXXXXEXXX [3064.0104] | 0.35

The sequences below were run against HLA A*6802 (Homo sapiens, UniProt P04439, A269V/D140Y/D185E/E176V/E277Q/E87N/F33Y/G231S/I121R/I166T/I218V/L180W/L300P/L318F/N151K/P208A/P217A/Q86R/R138H/R169H/S129P/T345S/V36M) (assay: not given).
Type: binding

Row | Sequence | Normalized average relative binding affinity(ARB)
91 | XXXXVXXXX [3064.0098] | 0.51
92 | XXXXWXXXX [3064.0099] | 0.26
93 | XXXXXAXXX [3064.0101] | 0.82
94 | XXXXXCXXX [3064.0102] | 0.44
95 | XXXXXDXXX [3064.0103] | 0.69
96 | XXXXXEXXX [3064.0104] | 0.75
